Source: patent US8277777B2, “Compound having affinity for amyloid” (Nihon Medi-Physics Co., Ltd., priority 2006, dated 2012)
Like-named read-outs stand apart in the source and are kept apart here.

Experiments:
[1] = [11C]-labeled, rats; cited from earlier work
[2] = target: T1, amyloid (aggregated Aβ1-40) (Homo sapiens, UniProt P05067); experiment: in vitro amyloid binding test (inhibition of [125I]3′-I-BTA-0 binding); conditions: [125I]3′-I-BTA-0 400 pmol/L, amyloid 1 μmol/L, 0.1% BSA phosphate buffer pH 7.4, 22°C, 3 hours
T1 construct: purchased Peptide Institute, INC
T1 sequence (P05067 672-711 limits assumed): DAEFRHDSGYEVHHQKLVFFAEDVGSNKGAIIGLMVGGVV
Procedure: The resulting samples were placed in each well (about 0.3 mL in volume) of a 96-well microplate.
The measured radioactivity level was defined as the background radioactivity level, and used in the calculation of the inhibition ratio (hereinafter referred to as BG).
(9) Using the radioactivity levels measured above in (7) and (8), the inhibition ratio was determined by the following formula (1).
A graph in which values converted by probit transformation from the obtained inhibition ratios were plotted relative to logarithms of concentrations of compounds for evaluation was prepared to obtain an approximate straight line by the least square method. Using the line, the concentration of each compound for evaluation was determined, at which the radioactivity level is half of the level of the sample free from each compound for evaluation, and was defined as a 50% inhibition concentration of each compound (hereinafter referred to as IC50% value).

[3] = [125I]-labeled, normal mice, cited from earlier work; for transfer into brain: 2 minutes after administration
[4] = partition coefficient based on HPLC; assay type: physicochemical; conditions: mobile phase 50 mM triethylamine phosphate (pH 7.2)/acetonitrile=40/60, formula (4)
Procedure: The partition coefficient by HPLC (hereinafter referred to as log PHPLC) was measured by the following method.
First, compounds for evaluation shown in Table 5 were dissolved at a concentration of 1 mg/mL in methanol containing 10% dimethylsulfoxide to prepare sample solutions. One μL of the sample solution was subjected to HPLC analysis under the following conditions to determine the elution time (tO) of the solvent and the elution time (tR) of each compound.
Column: Prodigy ODS (3) (product name; manufactured by phenomenex; size: 4.6×250 mm)
Mobile phase: a mixed solution of 50 mM triethylamine phosphate (pH 7.2)/acetonitrile=40/60
Detector: ultraviolet visible absorptiometer (detection wavelength: 282 nm)
Using the obtained tO and tR, the retention factor (hereinafter referred to as K′HPLC value) of each compound for evaluation was determined according to the calculation formula (3). K′HPLC=(tR−t0)/t0 (3) […]
Using K′HPLC obtained for each compound for evaluation, the log PHPLC value of each compound for evaluation was determined according to the above calculation formula (4).

amyloid = conditions: [125I]-labeled; cited from earlier work
[5] = test system: Salmonella typhimurium TA98; experiment: reverse mutation test (Ames test), TA98; assay type: cell-based
Procedure: (§1) In order to examine mutagenicity of Compound 1, Compound 2 and Compound 3, reverse mutation test using Salmonella typhimurium TA98 and TA100 (hereinafter referred to as Ames test) was conducted.
(§2) The test was conducted without addition of S9mix and with addition of S9mix. Dimethylsulfoxide was used as a negative control. A positive control was 2-(2-furyl)-3-(5-nitro-2-furyl)acrylamide in case S9mix was not added, and 2-aminoanthracene in case S9 mix was added.
(§3) The amount of each sample to be added to the test plate was 7 dosages (geometric ratio 4) with the maximum dose being 1250 μg/plate for Compound 1, and 7 dosages (geometric ratio 3) with the maximum dose being […] for Compound 2 and Compound 3. After a sample to be examined and a strain (TA98 or TA100), or a sample to be examined, S9mix and the strain were mixed together, the mixture was multilayered using soft agar on a medium of a test plate, and then incubated at 37° C. for 48 hours.

[6] = test system: Salmonella typhimurium TA100; experiment: reverse mutation test (Ames test), TA100; assay type: cell-based
Procedure: as §1, §2, §3

[7] = test system: Salmonella typhimurium TA98 and TA100; experiment: Ames test, overall judgment; assay type: cell-based; conditions: regardless of addition of S9mix
Procedure: as §1, §2, §3

[8] = partition coefficient based on the octanol extraction method; assay type: physicochemical; conditions: octanol / 10 mmol/L phosphate buffer (pH 7.4), radioactivity
Procedure: Partition coefficients based on the octanol extraction method (hereinafter referred to as log Poctanol) were measured, which are generally used as an indicator of permeability of compounds through the blood-brain barrier (hereinafter referred to as BBB).
To 2 mL of octanol, 10 μL of a solution containing Compound 4 (Example 5) and 2 mL of a 10 mmol/L phosphate buffer (pH 7.4) were added and stirred for 30 seconds. After the mixture was centrifuged (2000 rpm×60 min.) with a low-speed centrifuge (model: […] CT4D manufactured by Hitachi Koki Co., Ltd.), the octanol layer and the water layer were sampled each in an amount of 1 mL, and subjected to measurement of radioactivity with an autowell gamma system (manufactured by Aloka, Type: ARC-301B). Using the obtained radioactivity, log Poctanol was calculated in accordance with the equation (2).

[9] = transferability into brain and clearance; conditions: rats, intravenous injection
Procedure: Using Compound 4, a time course change of radioactive accumulation in brain of male Wistar rats (7-week old) was measured.
The rats were sacrificed by bleeding from abdominal artery, and brains were removed and subjected to measurement of radioactivity (hereinafter referred to as A in this Example) with an autowell gamma system (Type: ARC-301B manufactured by Aloka Co., Ltd.) and further subjected to measurement of mass of brains 2, 5, 30 and 60 minutes after the injection. Also, radioactivity (hereinafter referred to as B in this Example) of 0.05 mL of a 1000-fold diluted solution of the injected solution was measured in the same manner as above. Using these measurement results, radioactive distributions per unit weight of brain (% ID/g) at the respective time points were calculated in accordance with the following formula (5). Three animals were used for experiment at the respective time points.

[10] = target: T2, intracerebral amyloid (aggregated Aβ1-42 injected into amygdaloid nucleus) (Homo sapiens, UniProt P05067); experiment: confirmation of imaging of amyloid in brain (autoradiogram of brain slice); assay type: in vivo, male Wistar rat; conditions: rat, tail vein, brain removed 30 minutes after the injection
T2 construct: dissolving Aβ1-42 (Wako Pure Chemical Industries, Ltd.) in a phosphate buffer (pH 7.4); purchased Wako Pure Chemical Industries, Ltd
T2 sequence (P05067 672-713): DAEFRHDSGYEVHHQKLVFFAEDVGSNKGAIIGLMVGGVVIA
Procedure: The following experiment was carried out in order to examine whether amyloid in brain can be imaged by the compound of the present invention.
(1) A 1 mg/mL suspension of aggregated Aβ (hereinafter referred to as amyloid suspension in this Example) was obtained by dissolving Aβ1-42 (Wako Pure Chemical Industries, Ltd.) in a phosphate buffer (pH 7.4), followed by shaking at 37° C. for 72 hours.
(2) 2.5 μL (corresponding to […]) of the amyloid suspension was injected into an amygdaloid nucleus on one side of a male Wistar rat (7-week old). As a control, 2.5 μL of a phosphate buffered physiological saline solution (pH 7.4) was injected into an amygdaloid nucleus on the other side of the rat. The rats were examined 3 days after the injection of the amyloid suspension and the phosphate buffered physiological saline solution.
(3) Compound 4 was dissolved in a 10 mg/mL ascorbic acid-containing physiological saline solution to obtain a sample solution (84 MBq/mL in radioactivity concentration). This solution was injected into the rat through the tail vein (dosage: 0.5 mL, dosed radioactivity: 42 MBq equivalent).
(4) Brain was removed 30 minutes after the injection to prepare a brain slice of 10 μm in thickness with a microtome (type: CM3050S, manufactured by LEICA). […]

[11] = TA98, without addition of S9mix
[12] = TA100, without addition of S9mix

Which “clearance from normal tissues” value [1] does the source give for `CNc1ccc(/C=C/c2ccc(O)cc2)cc1` [SB-13, (E)-4-methylamino-4′-hydroxystilbene] here?
The value was “it cannot be said that the clearance is sufficiently fast”.

Which IC50 [2] does the source give for `Nc1c(/N=N/c2ccc(-c3ccc(/N=N/c4cc(S(=O)(=O)O)c5ccccc5c4N)cc3)cc2)cc(S(=O)(=O)O)c2ccccc12` [Congo Red, reference compound] here?
The IC50 was > 1000 nM.

With `CN(C)c1ccc(-c2nc3ccc(I)cc3o2)cc1` [IBOX, 6-iodo-2-[4′-(N,N-dimethylamino)phenyl]benzoxazole] as the compound, how does the transfer into brain [3] read?
The transfer into brain was “transferred into brain”.

What about the “clearance from normal tissues” value [3] of the same compound?
Its value is “insufficient in clearance from normal tissues”.

With `CN(C)c1ccc(-c2cn3cc(I)ccc3n2)cc1` [IMPY, 6-iodo-2-[4′-(N,N-dimethylamino)phenyl]imidazo[1,2-a]pyridine] as the compound, how does the logPHPLC value [4] read?
The logPHPLC value was 2.1.

And the “clearance from normal tissues” value (amyloid)?
The value was “rapid clearance from normal tissues”.

What about the “transfer to brain and accumulation at amyloid after administration” value (amyloid) of the same compound?
The value was “transferring to brain and accumulating at amyloid”.

For `CN(C)c1ccc(-c2nc3ccc(I)cc3s2)cc1` [TZDM, 6-iodo-2-[4′-(N,N-dimethylamino)phenyl]benzothiazole], which transfer into brain [3] is on record?
The transfer into brain was “transferred into brain”.

What about the “clearance from normal tissues” value [3] of the same compound?
Its value is “insufficient in clearance from normal tissues”.

Which results are given for `COc1ccc2nc(-c3ccc(OCCCF)cc3)cn2c1` [Compound 1, 2-[4′-(3″-fluoropropoxy)phenyl]-6-methoxyimidazo[1,2-a]pyridine]?
IC50 [2]: 1.1 nM; Mutagenicity ([5]; TA98, with addition of S9mix): Negative; Mutagenicity [5, 11]: Negative; Mutagenicity ([6]; TA100, with addition of S9mix): Negative; Mutagenicity [6, 12]: Negative; Ames test judgment [7]: negative

With `CN(C)c1ccc(-c2cn3cc([123I])ccc3n2)cc1` [[^123I]-IMPY, reference compound] as the compound, how does the logPoctanol value [8] read?
The logPoctanol value was 2.1.

And the “Radioactive concentration per unit weight in brain” value ([9]; after 2 min.)?
Its value is 1.02 % ID/g.

What about the “Radioactive concentration per unit weight in brain” value ([9]; after 5 min.) of the same compound?
The value was 0.99 % ID/g.

What about the “Radioactive concentration per unit weight in brain” value ([9]; after 30 min.) of the same compound?
Its value is 0.20 % ID/g.

What about the “Radioactive concentration per unit weight in brain” value ([9]; after 60 min.) of the same compound?
Its value is 0.08 % ID/g.

Which results are given for “2-[4′-(3″-[^18F]fluoropropoxy)phenyl]-6-methoxyimidazo[1,2-a]pyridine [Compound 4]”?
logPoctanol value [8]: 1.8; Radioactive concentration per unit weight in brain ([9]; after 2 min.): 1.36 % ID/g; Radioactive concentration per unit weight in brain ([9]; after 5 min.): 0.93 % ID/g; Radioactive concentration per unit weight in brain ([9]; after 30 min.): 0.23 % ID/g; Radioactive concentration per unit weight in brain ([9]; after 60 min.): 0.13 % ID/g; accumulation of radioactivity on intracerebral amyloid [10]: possesses a property of accumulating on intracerebral amyloid

With `FCCCOc1ccc(-c2cn3ccccc3n2)cc1` [Compound 3, 2-[4′-(3″-fluoropropoxy)phenyl]imidazo[1,2-a]pyridine] as the compound, how does the IC50 [2] read?
Its IC50 is 36.6 nM.

What about the chromatographic logP ([4]; read-out: logPHPLC value) of the same compound?
Its chromatographic logP is 1.7.

What about the Mutagenicity ([5]; TA98, with addition of S9mix) of the same compound?
The Mutagenicity was “Negative”.

What about the Mutagenicity [5, 11] of the same compound?
The Mutagenicity was “Negative”.

What about the Mutagenicity ([6]; TA100, with addition of S9mix) of the same compound?
Its Mutagenicity is “Negative”.

What about the Mutagenicity [6, 12] of the same compound?
Its Mutagenicity is “Negative”.

What about the Ames test judgment [7] of the same compound?
The Ames test judgment was “negative”.

With `Oc1ccc2nc(-c3ccc(OCCCF)cc3)cn2c1` [Compound 2, 2-[4′-(3″-fluoropropoxy)phenyl]-6-hydroxyimidazo[1,2-a]pyridine] as the compound, how does the IC50 [2] read?
The IC50 was 30.5 nM.

And the Mutagenicity ([5]; TA98, with addition of S9mix)?
The Mutagenicity was “Negative”.

And the Mutagenicity [5, 11]?
Its Mutagenicity is “Negative”.

And the Mutagenicity ([6]; TA100, with addition of S9mix)?
Its Mutagenicity is “Negative”.

And the Mutagenicity [6, 12]?
Its Mutagenicity is “Negative”.

What about the Ames test judgment [7] of the same compound?
Its Ames test judgment is “negative”.

What does the source list for `CN(C)c1ccc(/C=C/c2ccc(I)cc2)cc1` [m-I-SB, (E)-4-dimethylamino-4′-iodostilbene]?
transfer into brain [3]: transferred into brain; clearance from normal tissues [3]: insufficient in clearance from normal tissues
